Experiments:
[1] = target: T1, Bevacizumab (Homo sapiens, UniProt P01857); experiment: Microtiter plate chromatography of resins: binding and elution of Bevacizumab; settings: for Bevacizumab Bound: fraction of injected protein bound, 0.5 mg/ml IgG in PBS pH 7.3, ligand immobilized on SEPHAROSE 4 FF; for Bevacizumab Yield: mass eluted (glycine pH 2.5) / mass injected
T1 construct: 0.5 mg/ml IgG in PBS pH 7.3; ligand immobilized on SEPHAR; Bevacizumab Yield; other: mass eluted (glycine pH 2.5) / mass injected; kd (dissociation constant, Langmuir isotherm); other: Bevacizumab 0.05-5 mg/ml in PBS pH 7.3, 25° C., at least 3 h; qm (maximum capacity); other: mg Bevacizumab per ml of resin; Langmuir isotherm; t0; fused on or other part: Humanized anti-VEGF-A VH domain joined N-terminally to the IGHG1 constant region (engineered, no UniProt entry)
Procedure, shortened: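 About 30 μl packed resin columns loaded with 3.3 cv IgG at 0.5 mg ml^−1 in PBS or undiluted HCP, washed with 5 cv PBS, eluted with 5 cv glycine pH 2.5. Protein in fractions by Bradford. Bound fraction = (injected − flowthrough)/injected; yield = eluted/injected; selectivity = Bevacizumab bound fraction / HCP bound fraction, truncated beyond 10.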

[2] = test system: Tocilizumab; experiment: Microtiter plate chromatography of resins: binding and elution of Tocilizumab; settings: fraction of injected protein bound; 0.5 mg/ml IgG in PBS pH 7.3
Procedure, shortened: (§1)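 About 30 μl resin columns loaded with 3.3 cv IgG at 0.5 mg ml^−1 in PBS (or undiluted HCP), washed with 5 cv PBS, eluted with 5 cv glycine pH 2.5. Fractions quantified by Bradford; bound fraction = (mi−mft)/mi, yield = me/mi.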

[3] = test system: Palivizumab; experiment: Microtiter plate chromatography of resins: binding and elution of Palivizumab; settings: fraction of injected protein bound; 0.5 mg/ml IgG in PBS pH 7.3
Procedure, shortened: as §1

[4] = test system: Cetuximab; experiment: Microtiter plate chromatography of resins: binding and elution of Cetuximab; settings: fraction of injected protein bound; 0.5 mg/ml IgG in PBS pH 7.3
Procedure, shortened: as §1

[5] = test system: poly-IgG from human serum (h-poly-IgG); experiment: Microtiter plate chromatography of resins: binding and elution of human poly-IgG; settings: fraction of injected protein bound; 0.5 mg/ml IgG in PBS pH 7.3
Procedure, shortened: as §1

[6] = test system: host cell proteins (HCP); experiment: Microtiter plate chromatography of resins: binding of host cell proteins; set-up: species or system CHO cell culture; settings: fraction of injected undiluted host cell proteins bound
Procedure, shortened: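 Undiluted HCP-containing flowthrough from protein A chromatography of CHO serum-free culture was loaded onto ~30 µl packed resin columns in microtiter-plate format. Columns were washed with 5 cv PBS and eluted with glycine pH 2.5, and fractions were quantified by Bradford. Bound fraction = (injected − flowthrough mass)/injected mass.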

[7] = target: T1, Bevacizumab; experiment: Langmuir isotherms by batch adsorption; type: binding; settings: for qm (maximum capacity): mg Bevacizumab per ml of resin, Langmuir isotherm; for Kd: Bevacizumab 0.05-5 mg/ml in PBS pH 7.3, 25° C., at least 3 h, read-out: kd (dissociation constant, Langmuir isotherm) (converted)
[8] = target: T1, Bevacizumab; experiment: Uptake kinetics by batch adsorption (time-scale of binding); settings: time after which 80% of equilibrium saturation occurred; 0.75 mg/ml Bevacizumab in PBS, 25° C.
Experimental: Uptake kinetics was investigated similarly by batch adsorption in 96-well filter plates. Again, 10 μl of sorbent slurry (50% v/v) were mixed with 100 μl of protein solution. […] Reactions were agitated vigorously at 25° C. for up to 80 min. Supernatants were separated rapidly by spinning through filters after 2.5, 5, 10, 20, 40 and 80 minutes and sampled for analysis. Concentrations of the antibody were analyzed by Bradford assay.
For determination of t0.8, measured concentrations in the supernatant were interpolated by fitting of double-exponentials and values of t0.8 were read out from graphs (2).

[9] = target: T1, Bevacizumab; experiment: Dynamic binding capacity by column chromatography
Experimental: Dynamic binding capacities were determined by column chromatography with purified Bevacizumab. Resins were packed into analytical columns of 25 mm length and 3 mm inner diameter. Columns were fed with 1 mg/ml antibody in phosphate-buffered saline (150 mM NaCl, 20 mM phosphate buffer, pH 7.3) at a flow rate of 50 cm/h (3 min column residence time), while the concentration of antibody in effluents was monitored online via absorbance at 280 nm. Antibody was loaded until complete breakthrough of the feed. Dynamic binding capacities were determined at the 10% breakthrough. Equilibrium capacities were determined by integration of the area above the breakthrough curve. Bound antibody was stripped from columns by elution with glycine at pH 3.0.
It was calculated as the time t0.1 after which 10% breakthrough occurred, multiplied by the flow rate F and feed concentration cf. dynamiccapacity=t0.1·F·cf
Equilibrium capacity is defined as the maximum amount of antibody that binds to a column for a given feed stream concentration. It was calculated by evaluation of the following integral
[formula] containing the feed concentration cf, effluent concentration over time c(t) and flow rate F. The integral was evaluated numerically. Integration was limited to the time after which complete breakthrough had occurred. […]

[10] = Alkaline stability of ligands in 0.5 M sodium hydroxide; type: physicochemical; settings: 25° C., 8 days, hydrolysis monitored by LC-MS, read-out: t0.5 (half-life) (converted)
Experimental: A subset of ligands from Example 1 was tested for its alkaline stability. Ligands were treated with 0.5 M sodium hydroxide at 25° C. for 8 days. Hydrolysis was monitored by LC-MS analysis.

SMILES | Bevacizumab Bound [1] [%] | Bevacizumab Yield [1] [%] | Tocilizumab Bound [2] [%] | Palivizumab Bound [3] [%] | Cetuximab Bound [4] [%] | h-poly-IgG Bound [5] [%] | qm (maximum capacity) [7] [mg/mL] | t0.8 (time-scale of binding) [8] [min] | Dynamic Capacity ([9]; 10% breakthrough, 1 mg/ml Bevacizumab, 50 cm/h (3 min residence time)) [mg/mL] | Equilibrium Capacity ([9]; feed concentration 1 mg/ml Bevacizumab, integration above breakthrough curve) [mg/mL] | half-life [10] [days] | Kd [7] [µM] | HCP Bound [6] [%]
NCCCn1cnc2cc(C(=O)Nc3nnc(-c4ccco4)s3)ccc21 [Ligand L05, 1-(3-Amino-1-propyl)benzimidazole-5-carboxylic acid N-[5-(2-furyl)-1,3,4-thiadiazol-2-yl]amide] | 100 | 101 | 100 | 100 | 100 | 100 | 47 | 9.8 | 25 | 39 | > 41.6 | – | 17
Cc1nc2cc(C(=O)Nc3nnc(-c4ccco4)s3)ccc2n1CCCN [Ligand L39, 1-(3-Amino-1-propyl)-2-methylbenzimidazole-5-carboxylic acid N-[5-(2-furyl)-1,3,4-thiadiazol-2-yl] amide] | 100 | 85 | 100 | 100 | 100 | 100 | 49 | 7.8 | – | – | > 41.6 | – | 10
NCCCNc1ccc(C(=O)Nc2nc(-c3ccccn3)cs2)cn1 [Ligand L40, 6-[(3-Amino-1-propyl)amino]nicotinic acid N-[4-(2-pyridyl)thiazol-2-yl] amide] | 100 | 101 | 99 | 89 | 100 | 98 | 39 | 9.2 | – | – | 32.6 | – | 20.5
CCc1nc2cc(C(=O)Nc3nc(-c4ccccn4)cs3)ccc2n1CCCN [Ligand L43, 1-(3-Amino-1-propyl)-2-ethylbenzimidazole-5-carboxylic acid N-[4-(2-pyridyl)thiazol-2-yl] amide] | 100 | 95 | 100 | 98 | 100 | 100 | 43 | 8.2 | – | – | > 41.6 | 399 | 18
CCc1nc2cc(C(=O)Nc3nnc(-c4ccco4)s3)ccc2n1CCCN [Ligand L44, 1-(3-Amino-1-propyl)-2-ethylbenzimidazole-5-carboxylic acid N-[5-(2-furyl)-1,3,4-thiadiazol-2-yl] amide] | 100 | 88 | 100 | 100 | 100 | 100 | 53 | 7.7 | – | – | > 41.6 | 265 | 16

More lines, main results first:

Bevacizumab Bound [1] [%] | Bevacizumab Yield [1] [%] | Tocilizumab Bound [2] [%] | Palivizumab Bound [3] [%] | Cetuximab Bound [4] [%] | h-poly-IgG Bound [5] [%] | qm (maximum capacity) [7] [mg/mL] | t0.8 (time-scale of binding) [8] [min] | Dynamic Capacity ([9]; 10% breakthrough, 1 mg/ml Bevacizumab, 50 cm/h (3 min residence time)) [mg/mL] | Equilibrium Capacity ([9]; feed concentration 1 mg/ml Bevacizumab, integration above breakthrough curve) [mg/mL] | half-life [10] [days] | Kd [7] [µM] | SMILES | HCP Bound [6] [%]
100 | 98 | 100 | 97 | 100 | 100 | 45 | 7.6 | – | – | > 41.6 | 318 | Cc1nc2cc(C(=O)Nc3nc(-c4ccccn4)cs3)ccc2n1CCCN [Ligand L42, 1-(3-Amino-1-propyl)-2-methylbenzimidazole-5-carboxylic acid N-[4-(2-pyridyl)thiazol-2-yl] amide] | 13.5
100 | 103 | 100 | 98 | 100 | 100 | 48 | 6.0 | – | – | 30 | 185 | NCCCn1cnc2cc(C(=O)Nc3nc(-c4cccnc4)cs3)ccc21 [Ligand L46, 1-(3-Amino-1-propyl)benzimidazole-5-carboxylic acid N-[4-(3-pyridyl)thiazol-2-yl] amide] | 17
100 | 100 | 99 | 98 | 100 | 100 | 43 | 5.6 | – | – | > 41.6 | 169 | NCCCn1cnc2cc(C(=O)Nc3nc(-c4ccncc4)cs3)ccc21 [Ligand L47, 1-(3-Amino-1-propyl)benzimidazole-5-carboxylic acid N-[4-(4-pyridyl)thiazol-2-yl] amide] | 13

— patent US9745339B2 (GRAFFINITY PHARMACEUTICALS GMBH, priority 2012, dated 2017)
